Results published in PMC6797481, “Identification of an allosteric binding site on the human glycine transporter, GlyT2, for bioactive lipid analgesics” (eLife, 2019).
Positions count from the first letter of the chain named. pIC50: −log10 of the molar value.

What was measured:
GlyT1 WT = test system: GlyT1 WT; design: method as in earlier work; settings: previously published; cited from earlier work
GlyT2 WT = molecular target: T1, GlyT2 WT (Homo sapiens, UniProt Q9Y345); design: expressed in transfected cells; host or cells: Xenopus laevis oocytes (cRNA injection); settings: WT GlyT2, previously published, cited from earlier work; for pIC50: mean (95% CI); for GlyT2 % max. inhibition: mean ± SEM
T1 sequence (Q9Y345 1-797): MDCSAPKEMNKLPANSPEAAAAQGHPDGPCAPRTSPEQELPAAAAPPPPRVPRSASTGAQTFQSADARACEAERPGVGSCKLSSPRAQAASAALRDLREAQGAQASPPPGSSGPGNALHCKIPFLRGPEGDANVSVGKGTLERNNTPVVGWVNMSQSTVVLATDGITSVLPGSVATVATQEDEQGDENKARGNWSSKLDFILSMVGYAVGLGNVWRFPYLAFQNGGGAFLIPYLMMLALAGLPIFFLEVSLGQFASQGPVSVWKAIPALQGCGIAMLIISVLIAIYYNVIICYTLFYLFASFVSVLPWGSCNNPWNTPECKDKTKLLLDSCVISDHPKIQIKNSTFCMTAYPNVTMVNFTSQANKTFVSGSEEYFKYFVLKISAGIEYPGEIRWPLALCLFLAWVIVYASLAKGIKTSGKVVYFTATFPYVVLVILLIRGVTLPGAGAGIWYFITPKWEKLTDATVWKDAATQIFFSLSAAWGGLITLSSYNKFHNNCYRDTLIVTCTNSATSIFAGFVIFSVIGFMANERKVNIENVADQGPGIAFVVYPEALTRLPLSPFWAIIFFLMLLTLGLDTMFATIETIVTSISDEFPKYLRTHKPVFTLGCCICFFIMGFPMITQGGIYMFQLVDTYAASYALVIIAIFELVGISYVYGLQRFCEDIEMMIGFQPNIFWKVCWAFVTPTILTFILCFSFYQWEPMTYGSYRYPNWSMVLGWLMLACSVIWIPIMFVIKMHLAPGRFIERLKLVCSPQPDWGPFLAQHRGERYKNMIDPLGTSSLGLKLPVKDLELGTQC

GlyT2 F428A mutant = molecular target: T2, GlyT2 F428A mutant (Homo sapiens, UniProt Q9Y345, F428A); experiment: Glycine transport currents, two electrode voltage clamp, oocytes expressing GlyT2 F428A; type: cell-based; settings: GlyT2 F428A; for % Max. inhibition: mean ± SEM
T2 construct: expressed in transfected cells; host or cells: Xenopus laevis oocytes (cRNA injection)
T2 sequence (Q9Y345 1-797 F428A): T1 sequence (Q9Y345 1-797) with F428A
Procedure: (§1) Glycine was first applied to establish maximal transport current.
(§2) Compounds were tested for inhibition of glycine transport on Xenopus laevis oocytes expressing mutant GlyT1 and GlyT2 transporters. n values are in brackets, with measurements taken from at least 2 batches of oocytes.

GlyT2 Y550L mutant = molecular target: T3, GlyT2 Y550L mutant (Homo sapiens, UniProt Q9Y345, Y550L); experiment: Glycine transport currents, two electrode voltage clamp, oocytes expressing GlyT2 Y550L; type: cell-based; settings: GlyT2 Y550L; for pIC50: greater than maximum concentration applied (footnote a); for % Max. inhibition: mean ± SEM
T3 construct: expressed in transfected cells; host or cells: Xenopus laevis oocytes (cRNA injection)
T3 sequence (Q9Y345 1-797 Y550L): T1 sequence (Q9Y345 1-797) with Y550L
Procedure: as §1, §2

GlyT2 W563L mutant = molecular target: T4, GlyT2 W563L mutant (Homo sapiens, UniProt Q9Y345, W563L); experiment: Glycine transport currents, two electrode voltage clamp, oocytes expressing GlyT2 W563L; type: cell-based; settings: GlyT2 W563L
T4 construct: expressed in transfected cells; host or cells: Xenopus laevis oocytes (cRNA injection)
T4 sequence (Q9Y345 1-797 W563L): T1 sequence (Q9Y345 1-797) with W563L
Procedure: as §1, §2

GlyT2 P561S mutant = molecular target: T5, GlyT2 P561S mutant (Homo sapiens, UniProt Q9Y345, P561S); experiment: Glycine transport currents, two electrode voltage clamp, oocytes expressing GlyT2 P561S; type: cell-based; settings: GlyT2 P561S
T5 construct: expressed in transfected cells; host or cells: Xenopus laevis oocytes (cRNA injection)
T5 sequence (Q9Y345 1-797 P561S): T1 sequence (Q9Y345 1-797) with P561S
Procedure: as §1, §2

SMILES | pIC50 (GlyT1 WT) | pIC50 (GlyT2 WT) | GlyT2 % max. inhibition (GlyT2 WT) [%] | pIC50 (GlyT2 F428A mutant) | % Max. inhibition (% inhibition at the highest concentration of inhibitor used) (GlyT2 F428A mutant; footnote b) | pIC50 (GlyT2 F428A mutant; mean (95% CI)) | % Max. inhibition (GlyT2 F428A mutant) | pIC50 (GlyT2 Y550L mutant) | % Max. inhibition (GlyT2 Y550L mutant) | pIC50 (GlyT2 W563L mutant; mean (95% CI)) | % Max. inhibition (GlyT2 W563L mutant; mean ± SEM) | pIC50 (GlyT2 P561S mutant; mean (95% CI)) | % Max. inhibition (GlyT2 P561S mutant; mean ± SEM)
CCCCC=CCCCCCCCC(=O)NCC(=O)O [C14 ω5 Glycine] | < 5.00 | 5.04 | 100 ± 7.2 | < 4.52 | 33.4 ± 3.0^b (p=0.0007) % | – | – | – | – | – | – | – | –
CCCCCCCCCC=CCCCCCCC(=O)NCC(=O)O [C18 ω10 Glycine] | < 5.00 | 6.47 | 52.4 ± 2.2 | – | – | 6.11 | 25.3 ± 5.3 (p=0.0092) % | – | – | – | – | – | –
CCCCCCCC/C=C\CCCCCCCC(=O)N[C@@H](CCCNC(=N)N)C(=O)O [oleoyl l-Arginine] | < 5.52 | 7.32 | 87.2 ± 3.7 | – | – | – | – | < 5.52 | 9.3 ± 1.4 (p=0.0001) % | – | – | – | –
CCCCCCCC/C=C\CCCCCCCC(=O)N[C@@H](CO)C(=O)O [oleoyl l-Serine] | < 5.52 | – | 73.1 ± 5.1 | – | – | – | – | < 5.52 | 11.2 ± 1.6 (p=0.0001) % | 6.18 | 62.3 ± 5.3 (p=0.3662) % | 6.24 | 80.3 ± 7.3 (p=0.7241) %
CCCCCCCCCCC=CCCCC(=O)NCC(=O)O [C16 ω11 Glycine] | < 5.00 | 5.47 | 97.9 ± 2.3 | – | – | 5.32 | 103 ± 7.7 (p=0.6075) % | – | – | – | – | – | –
CCCCCCCC=CCCCCCCCCC(=O)NCC(=O)O [C18 ω8 Glycine] | < 5.00 | 6.49 | 61.3 ± 1.7 | < 5.00 | – | – | 13.2 ± 2.7 (p=0.0001) % | – | – | – | – | – | –
CCCCCCCC/C=C\CCCCCCCC(=O)N[C@@H](CC(C)C)C(=O)O [oleoyl l-Leucine] | < 5.00 | – | 72.2 ± 3.8 | – | – | – | – | – | 41.1 ± 6.2 (p=0.0115) % | – | – | – | –
